One data set in a line: in vivo. Conditions: Sprague-Dawley, rat, po, 39.2 g/kg/day; for Cmax: C max; for Tmax: T max.
The nature of data set [1]: PK study of SM components in plasma of AIA rats by UPLC-MS/MS (MG vs MPS group). As to conditions: for Absorption under the intervention of PS: MPS vs MG group; for T max / AUC 0-t / AUC 0-∞ / C max / t 1/2: then oral SM 39.2 g crude drug/kg, plasma, mean ± SEM.
Procedure: (§1) In the PK study, 12 SD rats were divided into model group (MG group) and model + polysaccharide group (MPS group). Rats in the MPS group were given PS (9.8 g crude drug/kg/day) by oral administration, while rats in the MG group received the same amount of saline. After continuous administration for 21 days, rats in both groups were given SM (39.2 g crude drug/kg/day), and two groups of rats were subjected to a PK study.
(§2) The supernatant was collected and dried with N2, redissolved with 100 μL methanol, and centrifuged again after 10 min centrifugation at 4 °C, 13000 rpm. Then the supernatant was collected for UPLC-MS /MS analysis.
(§3) The Shimadzu UPLC-MS/MS system was used for the PK study. […] The multiple reaction monitoring (MRM) mode was used both in positive and negative mode. The MS parameters were as follows: flow rate of heating gas 10 L/min, flow rate of drying gas 10 L/min, flow rate of atomizing gas 3 L/min, interfacial temperature 300 ℃, DL temperature 250 ℃.
(§4) Separation was performed using a Waters ACQUITY UPLC BEH C18 column (2.1 mm × 100 mm, 1.7 μm). The mobile phase was 0.1% formic acid water (v/v) (A) and acetonitrile (B).
For data set [2] the following is noted: rat, in vivo.
Procedure: as §1, §2, §3, §4
Setting [3] is: MG group: AIA rats, saline 21 days, then oral SM 39.2 g crude drug/kg, plasma, mean ± SEM.
[4] abbreviates: MPS group: AIA rats, oral PS 9.8 g crude drug/kg/day 21 days, then oral SM 39.2 g crude drug/kg, plasma, mean ± SEM.
Setting [5] is: t 1/2, MG group: AIA rats, saline 21 days, then oral SM 39.2 g crude drug/kg, plasma, mean ± SEM.
The mark [6] stands for this setting: t 1/2, MPS group: AIA rats, oral PS 9.8 g crude drug/kg/day 21 days, then oral SM 39.2 g crude drug/kg, plasma, mean ± SEM.
Setting [7] is: MPS group compared with the MG group, AIA rats.
The mark [8] stands for this setting: MG group: AIA rats, saline 21 days.
Setting [9] is: MPS group: AIA rats, oral PS 9.8 g crude drug/kg/day 21 days.
[10] abbreviates: Sprague-Dawley, po, 39.2 g/kg/day.

The values that follow come from article PMC10787407, “Regulation of polysaccharide in Wu‐tou decoction on intestinal microflora and pharmacokinetics of small molecular compounds in AIA rats” (Chinese Medicine, 2024).

Molecules are shown by their SMILES. Where two headings read alike, the source gives them in different places.

What is called AUC(0-inf) is total exposure, with the tail of the curve extrapolated. A lower AUC(0-inf) goes with less exposure. A word on the Cmax: it is the highest concentration seen after dosing. For orientation: Tmax means the time from dosing to the highest level. The half-life is the time in which the quantity being followed falls by half. A low value points to rapid decline.

Procedure for in vivo: as §1, §2, §3, §4

`C[C@@]12C[C@@]3(O)O[C@@H](O1)[C@]1(COC(=O)c4ccccc4)[C@H]3C[C@@]12O[C@@H]1O[C@H](COC(=O)c2ccccc2)[C@@H](O)[C@H](O)[C@H]1O` [Benzoylpaeoniflorin]: in “in vivo” (setting [3]), the AUC 0-t worked out at 0.0279 ± 0.0054 µg·h/mL, the AUC(0-inf) stood at 0.0306 ± 0.00608 µg·h/mL, the concentration peaked (Cmax) at 0.0148 ± 0.00266 µg/mL and the Tmax was found to be 0.139 ± 0.079 h. For the same compound, in the data set “in vivo” (setting [4]), the AUC 0-t was 0.0316 ± 0.00674 µg·h/mL, the AUC(0-inf) is 0.0379 ± 0.00982 µg·h/mL, the Cmax was found to be 0.0243 ± 0.004 µg/mL and the time of peak concentration (Tmax) stood at 0.083 ± 0.001 h. The half-life in “in vivo” (setting [5]) was 3.59 ± 0.489 h. The compound also showed a half-life in the data set “in vivo” (setting [6]) of 6.96 ± 2.27 h. In addition, the “Change of C max after oral PS” value in data set [1] (setting [7]) is “significantly increased”. Further, in data set [1] (AIA rats), the “Absorption under the intervention of PS” value is “increased”.

Turning to `COc1ccc(-c2coc3cc(O)ccc3c2=O)cc1O` [Calycosin], in the data set “in vivo” (setting [3]), the AUC 0-t was 0.0123 ± 0.00106 µg·h/mL, the AUC(0-inf) is 0.0143 ± 0.00119 µg·h/mL, the Cmax turned out to be 0.00848 ± 0.00243 µg/mL and the Tmax turned out to be 0.083 ± 0.001 h. In the data set “in vivo” (setting [4]), the AUC 0-t was found to be 0.0124 ± 0.000972 µg·h/mL, the AUC(0-inf) was 0.0136 ± 0.000642 µg·h/mL, the Cmax was determined as 0.00661 ± 0.00144 µg/mL and the Tmax worked out at 0.083 ± 0.001 h. The half-life in the data set “in vivo” (setting [5]) is 4.94 ± 0.315 h. In the data set “in vivo” (setting [6]), this compound had a half-life of 3.53 ± 0.666 h.

Consider `CN[C@@H](C)[C@H](O)c1ccccc1` [Ephedrine], for which, in “in vivo” (setting [3]), the AUC 0-t was found to be 1.72 ± 0.0968 µg·h/mL, the AUC(0-inf) was determined as 1.75 ± 0.0936 µg·h/mL and the Cmax was 0.674 ± 0.137 µg/mL. In “in vivo” (setting [4]), the AUC(0-inf) worked out at 1.58 ± 0.228 µg·h/mL, the Cmax is 0.662 ± 0.149 µg/mL and the Tmax turned out to be 0.333 ± 0.118 h. The half-life in the data set “in vivo” (setting [5]) is 1.85 ± 0.273 h. In the data set “in vivo” (setting [6]), this compound showed a half-life of 1.74 ± 0.108 h. The same compound showed a T max in data set [1] (setting [8]) of 0.250 ± 0.001 h. The “AUC 0-t” value in data set [1] (setting [9]) amounted to 1.559029 ± 0.227025 µg·h/mL.

As to `O=C(/C=C/c1ccc(O[C@@H]2O[C@H](CO)[C@@H](O)[C@H](O)[C@H]2O)cc1)c1ccc(O)cc1O` [Isoliquiritin], in the data set “in vivo” (setting [3]), the AUC 0-t came out at 0.0233 ± 0.000956 µg·h/mL, the AUC(0-inf) was 0.0308 ± 0.00293 µg·h/mL, the Cmax came out at 0.0136 ± 0.00106 µg/mL and the Tmax was 0.194 ± 0.079 h. Moreover, in “in vivo” (setting [4]), the AUC 0-t is 0.0219 ± 0.00176 µg·h/mL, the AUC(0-inf) came to 0.0331 ± 0.00319 µg·h/mL, the concentration peaked (Cmax) at 0.0142 ± 0.00155 µg/mL and the time of peak concentration (Tmax) turned out to be 0.111 ± 0.062 h. In addition, the half-life in the data set “in vivo” (setting [5]) was 5.85 ± 2.02 h. For the same compound, the half-life in “in vivo” (setting [6]) was 7.61 ± 1.85 h.

For `O=C1C[C@@H](c2ccc(O[C@@H]3O[C@H](CO)[C@@H](O)[C@H](O)[C@H]3O)cc2)Oc2cc(O)ccc21` [Liquiritin], in the data set “in vivo” (setting [3]), the AUC 0-t worked out at 0.3 ± 0.0528 µg·h/mL, the AUC(0-inf) is 0.307 ± 0.0539 µg·h/mL, the Cmax stood at 0.126 ± 0.0185 µg/mL and the Tmax is 0.167 ± 0.083 h. In “in vivo” (setting [4]), the Tmax amounted to 0.083 ± 0.001 h. Further, the half-life in the data set “in vivo” (setting [5]) was 2.09 ± 0.132 h. The same compound showed a half-life in the data set “in vivo” (setting [6]) of 3.3 ± 0.429 h. In addition, the “Change of C max after oral PS” value in data set [1] (setting [7]) is given as “significantly increased”. Moreover, in data set [1] (setting [9]), the “AUC 0-t” value is 0.321663 ± 0.049723 µg·h/mL, the “AUC 0-∞” value was found to be 0.339781 ± 0.052584 µg·h/mL and the C max is 0.190023 ± 0.019153 µg/mL. In data set [1] (AIA rats), the “Absorption under the intervention of PS” value was “increased”.

Turning to `C[C@@]12C[C@@]3(O)O[C@@H](O1)[C@]1(COC(=O)c4ccccc4)[C@H]3C[C@@]12O[C@@H]1O[C@H](CO)[C@@H](O)[C@H](O)[C@H]1O` [Paeoniflorin], in “in vivo” (setting [3]), the AUC 0-t worked out at 2.54 ± 0.0959 µg·h/mL, the AUC(0-inf) was 2.46 ± 0.223 µg·h/mL, the Cmax was 1.92 ± 0.225 µg/mL and the Tmax is 0.438 ± 0.108 h. Further, in “in vivo” (setting [4]), the AUC 0-t is 2.87 ± 0.0717 µg·h/mL, the AUC(0-inf) amounted to 2.9 ± 0.0687 µg·h/mL, the Cmax came to 2.06 ± 0.352 µg/mL and the time of peak concentration (Tmax) is 0.396 ± 0.18 h. For the same compound, the half-life in “in vivo” (setting [5]) is 2.13 ± 0.102 h. Besides, the half-life in “in vivo” (setting [6]) is 1.99 ± 0.126 h. In addition, in data set [1] (setting [7]), the “Change of AUC 0-t after oral PS” value was “increased” and the “Change of AUC 0-∞ after oral PS” value was “increased”. In addition, the “Absorption under the intervention of PS” value in data set [1] (AIA rats) is on record as “increased”.

On to `C=C1[C@H]2C[C@@]3([C@@H]1O)[C@@H](CC2=O)[C@]12[C@@H]4C[C@H]3[C@H]1N(CC)C[C@]4(C)CC[C@@H]2O` [Songorine], for which, in data set [2] (setting [10]), the “AUC 0-t” value was found to be 0.08073 ± 0.005544 µg·h/mL, the “AUC 0-∞” value amounted to 0.084255 ± 0.005364 µg·h/mL, the C max amounted to 0.017665 ± 0.00191 µg/mL and the T max turned out to be 0.917 ± 0.773 h. Moreover, the “t 1/2” value in data set [2] (setting [10]) is recorded as 2.522 ± 0.269 h. Further, the “Absorption under the intervention of PS” value in data set [2] is listed as “increased”. Also, in data set [2] (po), the “Change of AUC 0-t after oral PS” value is “increased” and the “Change of AUC 0-∞ after oral PS” value is given as “increased”. Besides, in “in vivo”, the AUC 0-t worked out at 0.0602 ± 0.00651 µg·h/mL, the AUC(0-inf) came to 0.0646 ± 0.00604 µg·h/mL, the highest level (Cmax) was 0.014 ± 0.00232 µg/mL and the time of peak concentration (Tmax) is 0.667 ± 0.236 h. Besides, the half-life in the data set “in vivo” (t 1/2) is 2.64 ± 0.461 h.

On to `CCN1C[C@]2(COC)CC[C@H](OC)[C@]34C1[C@H](C[C@H]23)[C@@]1(O)C[C@H](OC)[C@H]2C[C@@H]4[C@@H]1[C@H]2O` [Talatizamine], for which, in data set [1] (setting [8]), the “AUC 0-t” value was 0.021996 ± 0.001581 µg·h/mL, the “AUC 0-∞” value came out at 0.030766 ± 0.004871 µg·h/mL, the C max was determined as 0.003376 ± 0.000595 µg/mL and the T max was determined as 0.417 ± 0.276 h. Also, the “t 1/2” value in data set [1] (setting [8]) is given as 6.242 ± 1.838 h. Besides, in data set [1] (setting [9]), the “AUC 0-t” value came out at 0.022338 ± 0.001786 µg·h/mL, the “AUC 0-∞” value was 0.028106 ± 0.002545 µg·h/mL, the C max came to 0.003576 ± 0.00032 µg/mL and the T max came out at 0.292 ± 0.093 h. The “t 1/2” value in data set [1] (setting [9]) stood at 5.163 ± 1.483 h.
